Measurements as given in ChEMBL document CHEMBL1150994, “The chemical synthesis of large random peptide libraries and their use for the discovery of ligands for macromolecular acceptors” (Bioorg Med Chem Lett, 1993).
Calls of active or inactive are those of the source. The calls are words filed in the database; no cut-off is given here. Where a SMILES comes first, the peptide text is derived from it. [ ]: non-standard residue; d: D form. βAla = NCCC(=O)O

The molecules below were run on Monoclonal antibody (mAb) 3E7 (assay: Affinity of compound towards anti-beta-endorphin MAb(Clone 3-E7) using [3H]-[Leu5]-enkephalin as labeled ligand).

Work on `CSCC[C@H](NC(=O)[C@@H]1CCCN1C(=O)[C@H](C)NC(=O)CNC(=O)[C@@H](N)Cc1ccc(O)cc1)C(=O)O` (H-YGAPM-OH) yielded an EC50 of 52 nM.

These molecules were tested on Monoclonal antibody (mAb) 3E7 (assay: Affinity towards anti-beta-endorphin MAb(Clone 3-E7) using [3H][Leu5]-enkephalin as labeled ligand at 10 uM concentration; not active).

In the case of `C[C@H](NC(=O)[C@H](Cc1ccccc1)NC(=O)CNC(=O)CNC(=O)[C@@H](N)Cc1ccc(O)cc1)C(=O)O` (H-YGGFA-OH), the Activity is reported as “inactive”.
In the case of `CC(C)C[C@H](NC(=O)CNC(=O)CNC(=O)[C@@H](N)Cc1ccc(O)cc1)C(=O)N[C@@H](CO)C(=O)O` (H-YGGLS-OH), the Activity is reported as “inactive”.
`CC(C)C[C@H](NC(=O)[C@H](C)NC(=O)CNC(=O)[C@@H](N)Cc1ccc(O)cc1)C(=O)N[C@@H](CCC(N)=O)C(=O)O` (H-YGALQ-OH) was tested, and the Activity was “inactive”.
With `CSCC[C@H](NC(=O)CNC(=O)CNC(=O)[C@@H](N)Cc1ccc(O)cc1)C(=O)N[C@H](C(=O)O)C(C)C` (H-YGGMV-OH) the Activity was “inactive”.
For `C[C@@H](O)[C@H](NC(=O)[C@H](Cc1ccccc1)NC(=O)CNC(=O)CNC(=O)[C@@H](N)Cc1ccc(O)cc1)C(=O)O` (H-YGGFT-OH), the Activity was “inactive”.

The molecules below were run on Monoclonal antibody (mAb) 3E7 (assay: Affinity towards anti-beta-endorphin MAb(Clone 3-E7) using [3H][Leu5]-enkephalin as labeled ligand).

`CC(C)C[C@H](NC(=O)CNC(=O)CNC(=O)[C@@H](N)Cc1ccc(O)cc1)C(=O)N[C@@H](CO)C(N)=O` (H-YGGLS-NH2) and `CC(C)C[C@H](NC(=O)CNC(=O)CNC(=O)[C@@H](N)Cc1ccc(O)cc1)C(=O)N[C@@H](CO)C(=O)O` (H-YGGLS-OH) are within 1.5-fold of each other in IC50: 991 nM for the first, 726 nM for the second.

`NC(=O)CCNC(=O)[C@H](CCC(N)=O)NC(=O)[C@H](Cc1ccccc1)NC(=O)CNC(=O)CNC(=O)[C@@H](N)Cc1ccccc1` (H-FGGFQ[βAla]-NH2) and `NC(=O)CC[C@H](NC(=O)[C@H](Cc1ccccc1)NC(=O)CNC(=O)CNC(=O)[C@@H](N)Cc1ccccc1)C(=O)NCCC(=O)O` (H-FGGFQ[βAla]-OH) are within 1.5-fold of each other in IC50: 45.4 nM for the first, 39.4 nM for the second.

Compared with `C[C@@H](O)[C@H](NC(=O)[C@H](Cc1ccccc1)NC(=O)CNC(=O)CNC(=O)[C@@H](N)Cc1ccc(O)cc1)C(N)=O` (H-YGGFT-NH2), `C[C@@H](O)[C@H](NC(=O)[C@H](Cc1ccccc1)NC(=O)CNC(=O)CNC(=O)[C@@H](N)Cc1ccc(O)cc1)C(=O)O` (H-YGGFT-OH) is 1.8-fold lower in IC50: 65.2 nM for the first, 36.9 nM for the second.

Compared with `C[C@H](NC(=O)[C@H](Cc1ccccc1)NC(=O)CNC(=O)CNC(=O)[C@@H](N)Cc1ccc(O)cc1)C(=O)O` (H-YGGFA-OH), `C[C@H](NC(=O)[C@H](Cc1ccccc1)NC(=O)CNC(=O)CNC(=O)[C@@H](N)Cc1ccc(O)cc1)C(N)=O` (H-YGGFA-NH2) is 2.2-fold higher in IC50: 32.9 nM for the first, 72 nM for the second.

`CC(C)C[C@H](NC(=O)[C@H](C)NC(=O)CNC(=O)[C@@H](N)Cc1ccc(O)cc1)C(=O)N[C@@H](CCC(N)=O)C(N)=O` (H-YGALQ-NH2) and `CC(C)C[C@H](NC(=O)[C@H](C)NC(=O)CNC(=O)[C@@H](N)Cc1ccc(O)cc1)C(=O)N[C@@H](CCC(N)=O)C(=O)O` (H-YGALQ-OH) are within 1.5-fold of each other in IC50: 2910 nM for the first, 1980 nM for the second.

`C[C@H](NC(=O)[C@H](Cc1ccccc1)NC(=O)CNC(=O)CNC(=O)[C@@H](N)Cc1ccc(O)cc1)C(=O)NCCC(N)=O` (H-YGGFA[βAla]-NH2) and `C[C@H](NC(=O)[C@H](Cc1ccccc1)NC(=O)CNC(=O)CNC(=O)[C@@H](N)Cc1ccc(O)cc1)C(=O)NCCC(=O)O` (H-YGGFA[βAla]-OH) are within 1.5-fold of each other in IC50: 93.6 nM for the first, 82.3 nM for the second.

`CC(C)C[C@H](NC(=O)[C@H](Cc1ccccc1)NC(=O)CNC(=O)CNC(=O)[C@@H](N)Cc1ccc(O)cc1)C(=O)N[C@@H](C)C(N)=O` (H-YGGFLA-NH2) and `CC(C)C[C@H](NC(=O)[C@H](Cc1ccccc1)NC(=O)CNC(=O)CNC(=O)[C@@H](N)Cc1ccc(O)cc1)C(=O)N[C@@H](C)C(=O)O` (H-YGGFLA-OH) are within 1.5-fold of each other in IC50: 13.7 nM for the first, 17.1 nM for the second.

`CC(C)C[C@H](NC(=O)CNC(=O)CNC(=O)[C@@H](N)Cc1ccc(O)cc1)C(=O)N[C@@H](CO)C(=O)NCCC(N)=O` (H-YGGLS[βAla]-NH2) and `CC(C)C[C@H](NC(=O)CNC(=O)CNC(=O)[C@@H](N)Cc1ccc(O)cc1)C(=O)N[C@@H](CO)C(=O)NCCC(=O)O` (H-YGGLS[βAla]-OH) are within 1.5-fold of each other in IC50: 1150 nM for the first, 916 nM for the second.

`CSCC[C@H](NC(=O)CNC(=O)CNC(=O)[C@@H](N)Cc1ccc(O)cc1)C(=O)N[C@H](C(=O)NCCC(N)=O)C(C)C` (H-YGGMV[βAla]-NH2) and `CSCC[C@H](NC(=O)CNC(=O)CNC(=O)[C@@H](N)Cc1ccc(O)cc1)C(=O)N[C@H](C(=O)NCCC(=O)O)C(C)C` (H-YGGMV[βAla]-OH) are within 1.5-fold of each other in IC50: 7160 nM for the first, 5140 nM for the second.

First: CSCC[C@H](NC(=O)CNC(=O)CNC(=O)[C@@H](N)Cc1ccc(O)cc1)C(=O)N[C@H](C(=O)O)C(C)C (H-YGGMV-OH)
Second: CC(C)C[C@H](NC(=O)[C@H](Cc1ccccc1)NC(=O)CNC(=O)CNC(=O)[C@@H](N)Cc1ccc(O)cc1)C(N)=O [[LEU5]ENKEPHALIN]
The IC50 of the first is 320-fold higher: 8780 nM for the first, 27.3 nM for the second. The second is the more potent here.

`NC(=O)CC[C@H](NC(=O)[C@H](Cc1ccccc1)NC(=O)CNC(=O)CNC(=O)[C@@H](N)Cc1ccccc1)C(N)=O` (H-FGGFQ-NH2) and `C[C@@H](O)[C@H](NC(=O)[C@H](Cc1ccccc1)NC(=O)CNC(=O)CNC(=O)[C@@H](N)Cc1ccc(O)cc1)C(=O)NCCC(N)=O` (H-YGGFT[βAla]-NH2) are within 1.5-fold of each other in IC50: 40.1 nM for the first, 43.3 nM for the second.

Going from `C[C@@H](O)[C@H](NC(=O)[C@H](Cc1ccccc1)NC(=O)CNC(=O)CNC(=O)[C@@H](N)Cc1ccc(O)cc1)C(=O)NCCC(=O)O` (H-YGGFT[βAla]-OH) to `CC(C)C[C@H](NC(=O)[C@H](C)NC(=O)CNC(=O)[C@@H](N)Cc1ccc(O)cc1)C(=O)N[C@@H](CCC(N)=O)C(=O)NCCC(=O)O` (H-YGALQ[βAla]-OH), the IC50 rises from 50.6 nM to 1470 nM (29-fold).
